From US20230295110A1, “PHD INHIBITOR COMPOUNDS, COMPOSITIONS, AND METHODS OF USE” (Akebia Therapeutics, Inc., priority 2020, published 2023)
pIC50: −log10 of the molar value.

Assays:
[1] = molecular target: full-length human PHD3 (Homo sapiens (Human), UniProt Q9H6Z9); assay: TR-FRET assay for PHD enzymes, PHD3; assay type: biochemical; conditions: TR-FRET, 35 nM PHD3, 1 μM 2-OG
From the text: Recombinant human PHD3 protein (molecular weight 31.1 kDa) was purchased from Active Motif (Carlsbad, CA, USA). It was expressed in E. coli as the full-length protein (NCBI accession number NP_071356.1) with an N-terminal 6-His tag (catalog #81033, Lot #24417001).

[2] = molecular target: full-length human PHD2 (Homo sapiens (Human), UniProt Q9GZT9); assay: TR-FRET assay for PHD enzymes, PHD2; conditions: read-out: PHD2 IC50; TR-FRET, 5 nM PHD2, 1 μM 2-OG
Chain of full-length human PHD2 (Q9GZT9 whole entry): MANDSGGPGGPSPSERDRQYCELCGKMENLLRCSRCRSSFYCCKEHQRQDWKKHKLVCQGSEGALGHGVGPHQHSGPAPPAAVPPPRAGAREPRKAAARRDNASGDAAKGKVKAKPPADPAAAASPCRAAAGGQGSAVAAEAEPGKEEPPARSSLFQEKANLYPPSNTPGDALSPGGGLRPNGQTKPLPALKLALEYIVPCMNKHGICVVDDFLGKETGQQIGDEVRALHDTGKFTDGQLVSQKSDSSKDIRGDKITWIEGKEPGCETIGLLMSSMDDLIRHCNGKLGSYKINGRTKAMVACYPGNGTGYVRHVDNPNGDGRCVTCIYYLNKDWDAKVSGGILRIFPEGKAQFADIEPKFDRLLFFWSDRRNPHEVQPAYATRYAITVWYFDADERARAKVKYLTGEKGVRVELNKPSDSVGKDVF
From the text: Time-resolved fluorescence resonance energy transfer (TR-FRET) assay was utilized to determine the enzymatic half maximal inhibitory concentration (IC50) value of PHD inhibitors against the full-length human prolyl-4-hydroxylase domain (PHD) enzymes, PHD1, PHD2, and PHD3. The TR-FRET assay was developed based on the specific binding of hydroxylated HIF-1α peptide with the complex formed by VHL, EloB and EloC (VBC), to generate a fluorescent signal. Terbium (Tb)-Donor (monoclonal antibody anti-6His-Tb-cryptate Gold) and D2-acceptor (streptavidin [SA]-D2) of TR-FRET are linked to the VBC complex and to HIF-1α peptide, respectively. The VBC complex binds specifically to the HIF-1α peptide when it is hydroxylated, allowing energy transfer from TR-FRET donor to acceptor (FIG. 1). […] The plates were incubated for 30 minutes at room temperature without rotation. […] TR-FRET assays were performed in triplicate at each concentration of compound and the assays were repeated independently three times.

[3] = molecular target: full-length human PHD1 (Homo sapiens (Human), UniProt Q96KS0); assay: TR-FRET assay for PHD enzymes, PHD1; assay type: biochemical; conditions: TR-FRET, 15 nM PHD1, 1 μM 2-OG
Chain of full-length human PHD1 (Q96KS0 whole entry): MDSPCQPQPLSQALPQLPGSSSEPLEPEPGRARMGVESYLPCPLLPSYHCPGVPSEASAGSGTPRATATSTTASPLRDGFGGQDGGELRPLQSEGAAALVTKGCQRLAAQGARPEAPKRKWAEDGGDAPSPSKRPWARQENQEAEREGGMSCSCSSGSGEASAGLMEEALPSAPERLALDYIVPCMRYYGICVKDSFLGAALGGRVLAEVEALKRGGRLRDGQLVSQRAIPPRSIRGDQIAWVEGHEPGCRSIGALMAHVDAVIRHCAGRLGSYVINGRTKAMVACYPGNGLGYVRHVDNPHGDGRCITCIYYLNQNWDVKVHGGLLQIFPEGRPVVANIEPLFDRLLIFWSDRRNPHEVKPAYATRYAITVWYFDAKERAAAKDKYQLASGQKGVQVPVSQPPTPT
From the text: PHD1 was expressed in a baculovirus expression system as the full-length protein (NCBI accession number NP_542770.2) with an N-terminal FLAG tag (molecular weight 44.9 kDa).

Measured: pIC50

Chain of full-length human PHD3 (Q9H6Z9 whole entry): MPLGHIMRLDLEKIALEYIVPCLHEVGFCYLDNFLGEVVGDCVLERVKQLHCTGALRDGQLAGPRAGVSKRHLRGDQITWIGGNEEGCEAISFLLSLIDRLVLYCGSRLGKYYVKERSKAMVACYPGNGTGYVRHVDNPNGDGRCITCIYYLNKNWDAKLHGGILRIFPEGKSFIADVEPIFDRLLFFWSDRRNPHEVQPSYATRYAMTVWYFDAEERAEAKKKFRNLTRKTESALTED

Cc1c(-c2cnn(C3CCOCC3)c2)cnc(C(=O)NCC(=O)O)c1O [Compound 21, (3-Hydroxy-4-methyl-5-(1-(tetrahydro-2H-pyran-4-yl)-1H-pyrazol-4-yl)picolinoyl)glycine]
> 7.00: all assays above

Cc1nn(-c2ccc(F)cc2)cc1-c1cnc(C(=O)NCC(=O)O)c(O)c1C [Compound 38, (5-(1-(4-fluorophenyl)-3-methyl-1H-pyrazol-4-yl)-3-hydroxy-4-methylpicolinoyl)glycine]
> 7.00: all assays above

Cc1c(-c2cccc(Cl)c2)cnc(C(=O)NCC(=O)O)c1O [Compound 32, (5-(3-chlorophenyl)-3-hydroxy-4-methylpicolinoyl)glycine]
> 7.00: all assays above

Cc1c(-c2ccc3ccccc3c2)cnc(C(=O)NCC(=O)O)c1O [Compound 33, (3-hydroxy-4-methyl-5-(naphthalen-2-yl)picolinoyl)glycine]
> 7.00: all assays above

Cc1c(-c2cnn(-c3ccc(F)cc3)c2)cnc(C(=O)NCC(=O)O)c1O [Compound 19, (5-(1-(4-Fluorophenyl)-1H-pyrazol-4-yl)-3-hydroxy-4-methylpicolinoyl)glycine]
> 7.00: all assays above

Cc1c(-c2ccc(C(F)(F)F)nc2)cnc(C(=O)NCC(=O)O)c1O [Compound 9, (5-Hydroxy-4-methyl-6′-(trifluoromethyl)-[3,3′-bipyridine]-6-carbonyl)glycine]
> 7.00: all assays above

Cc1c(-c2cnc(-c3ccccc3)o2)cnc(C(=O)NCC(=O)O)c1O [Compound 26, (3-hydroxy-4-methyl-5-(2-phenyloxazol-5-yl)picolinoyl)glycine]
> 7.00: all assays above

COc1cccc(-c2cnc(C(=O)NCC(=O)O)c(O)c2C)c1 [Compound 2, (3-Hydroxy-5-(3-methoxyphenyl)-4-methylpicolinoyl)glycine]
> 7.00: all assays above

Cc1c(-c2cn(-c3ccccc3)nn2)cnc(C(=O)NCC(=O)O)c1O [Compound 44, (3-hydroxy-4-methyl-5-(1-phenyl-1H-1,2,3-triazol-4-yl)picolinoyl)glycine]
> 7.00: all assays above

Cc1c(-c2cn(CCCc3ccc(Cl)cc3)nn2)cnc(C(=O)NCC(=O)O)c1O [Compound 43, (5-(1-(3-(4-chlorophenyl)propyl)-1H-1,2,3-triazol-4-yl)-3-hydroxy-4-methylpicolinoyl)glycine]
> 7.00: all assays above

Cc1nn(-c2cccc(F)c2)cc1-c1cnc(C(=O)NCC(=O)O)c(O)c1C [Compound 39, (5-(1-(3-fluorophenyl)-3-methyl-1H-pyrazol-4-yl)-3-hydroxy-4-methylpicolinoyl)glycine]
> 7.00: all assays above

Cc1c(-c2cc(Cl)cc(Cl)c2)cnc(C(=O)NCC(=O)O)c1O [Compound 36, (5-(3,5-dichlorophenyl)-3-hydroxy-4-methylpicolinoyl)glycine]
> 7.00: all assays above

Cc1c(-c2cn(CCc3ccc(Cl)cc3)nn2)cnc(C(=O)NCC(=O)O)c1O [Compound 42, (5-(1-(4-chlorophenethyl)-1H-1,2,3-triazol-4-yl)-3-hydroxy-4-methylpicolinoyl)glycine]
> 7.00: all assays above

Cc1c(-c2cccnc2)cnc(C(=O)NCC(=O)O)c1O [Compound 10, (5-Hydroxy-4-methyl-[3,3′-bipyridine]-6-carbonyl)glycine]
> 7.00: all assays above

Cc1c(-c2cnn(CC(C)C)c2)cnc(C(=O)NCC(=O)O)c1O [Compound 22, (3-Hydroxy-5-(1-isobutyl-1H-pyrazol-4-yl)-4-methylpicolinoyl)glycine]
> 7.00: all assays above

Cc1nc(-c2ccccc2)sc1-c1cnc(C(=O)NCC(=O)O)c(O)c1C [Compound 37, (3-hydroxy-4-methyl-5-(4-methyl-2-phenylthiazol-5-yl)picolinoyl)glycine]
> 7.00: all assays above

Cc1c(-c2cn(-c3ccc(F)cc3)nn2)cnc(C(=O)NCC(=O)O)c1O [Compound 41, (5-(1-(4-fluorophenyl)-1H-1,2,3-triazol-4-yl)-3-hydroxy-4-methylpicolinoyl)glycine]
> 7.00: all assays above

Cc1c(-c2cnn(-c3ccccn3)c2)cnc(C(=O)NCC(=O)O)c1O [Compound 18, (3-Hydroxy-4-methyl-5-(1-(pyridin-2-yl)-1H-pyrazol-4-yl)picolinoyl)glycine]
> 7.00: all assays above

Cc1nc(C(=O)NCC(=O)O)c(O)c(C)c1-c1cnn(-c2ccccc2)c1 [Compound 25, (3-Hydroxy-4,6-dimethyl-5-(1-phenyl-1H-pyrazol-4-yl)picolinoyl)glycine]
> 7.00: all assays above
